ChEMBL document CHEMBL1149985, “Novel synthesis of nucleoside 5-polyphosphates” (Bioorg Med Chem Lett, 1996)

Legend:
Dictyostelium discoideum [1] = experiment: Compound was evaluated for nucleoside diphosphate kinase (NDP-kinase) activity relative to Adenosine triphosphate (100); parameters: concentration or dose not given beside the values
Dictyostelium discoideum [2] = experiment: Compound was evaluated for nucleoside diphosphate kinase (NDP-kinase) activity

O=P(O)(O)OP(=O)(O)OP(=O)(O)OC[C@H]1O[C@@H](n2cnc3c(Cl)ncnc32)[C@H](O)[C@@H]1O
Relative activity (Dictyostelium discoideum [1]): 110%

O=P(O)(O)OP(=O)(O)OP(=O)(O)OC[C@H]1O[C@@H](n2cnc3cncnc32)[C@H](O)[C@@H]1O
Relative activity (Dictyostelium discoideum [1]): 130%

O=P(O)(O)OP(=O)(O)OP(=O)(O)OC[C@H]1O[C@@H](n2cnc3cc(Cl)c(Cl)cc32)[C@H](O)[C@@H]1O
Relative activity (Dictyostelium discoideum [1]): 145%

Nc1ncnc2c1ccn2[C@@H]1O[C@H](COP(=O)(O)OP(=O)(O)OP(=O)(O)O)[C@@H](O)[C@H]1O
Relative activity (Dictyostelium discoideum [1]): 155%

Nc1ncnc2c1nc(Cl)n2[C@@H]1O[C@H](COP(=O)(O)OP(=O)(O)OP(=O)(O)O)[C@@H](O)[C@H]1O
Relative activity (Dictyostelium discoideum [1]): 140%

Nc1ncnc2c1ncn2[C@@H]1O[C@H](COP(=O)(O)OP(=O)(O)OP(=O)(O)O)[C@@H](O)[C@H]1O
Relative activity (Dictyostelium discoideum [2]): 100%
